# In PMC8445441, “Elucidating the mechanism by which synthetic helper peptides sensitize Pseudomonas aeruginosa to multiple antibiotics” (PLoS Pathogens, 2021):
# Values joined by “and” are separate entries in the source; they are usually repeats but may differ in a detail not shown here. Identical values can stand only once. Like-named read-outs stand apart in the source and are kept apart here.
# Assays:
# P. aeruginosa AUMC-Pa-3 = assay: microbe, parasite or virus in culture; conditions: for MICac: MIC of the antibiotic in the combination: with D-11 at MICbc 4, unit not given
# In short: (§1)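 MICs were determined by CLSI broth microdilution in MHB, in triplicate: two-fold drug dilutions were mixed 1:1 with bacterial suspension of ~1 × 10^6 CFU/mL and incubated 18 h at 37 °C. The MIC was the lowest concentration with no visible growth.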
# P. aeruginosa AUMC-Pa-4 = assay: microbe, parasite or virus in culture; conditions: strain AUMC-Pa-4; for MICa: MIC of the antibiotic: antibiotic alone; for MICa: MIC of the antibiotic / MICac: MIC of the antibiotic in the combination: unit not given; for MICac: MIC of the antibiotic in the combination: with D-11 at MICbc 4
# In short: as §1
# P. aeruginosa AUMC-Pa-5 = assay: microbe, parasite or virus in culture; conditions: for MICac: MIC of the antibiotic in the combination: with D-11 at MICbc 4
# In short: as §1
# P. aeruginosa AUMC-Pa-6 = assay: microbe, parasite or virus in culture; conditions: strain AUMC-Pa-6; for MICa: MIC of the antibiotic: antibiotic alone; for MICa: MIC of the antibiotic / MICac: MIC of the antibiotic in the combination: unit not given; for MICac: MIC of the antibiotic in the combination: with D-11 at MICbc 4
# In short: as §1
# P. aeruginosa PAO1 = assay: microbe, parasite or virus in culture; conditions: PAO1
# In short: as §1
# P. aeruginosa ATCC27853 = assay: microbe, parasite or virus in culture; set-up: MICa: MIC of the antibiotic / MICac: MIC of the antibiotic in the combination: unit not given beside the values; conditions: strain ATCC27853; for FICI: antibiotic + D-11 (MICb/MICbc 32/4); for MICa: MIC of the antibiotic: antibiotic alone; for MICa: MIC of the antibiotic / MICac: MIC of the antibiotic in the combination: unit not given; for MICac: MIC of the antibiotic in the combination: with D-11 at MICbc 4
# In short: as §1
# P. aeruginosa NR-31040 = assay: microbe, parasite or virus in culture; set-up: MICa: MIC of the antibiotic / MICac: MIC of the antibiotic in the combination: unit not given beside the values; conditions: strain NR-31040; for MICa: MIC of the antibiotic: antibiotic alone; for MICa: MIC of the antibiotic / MICac: MIC of the antibiotic in the combination: unit not given; for MICac: MIC of the antibiotic in the combination: with D-11 at MICbc 4
# In short: as §1
# P. aeruginosa NR-31041 = assay: microbe, parasite or virus in culture; set-up: MICa: MIC of the antibiotic / MICac: MIC of the antibiotic in the combination: unit not given beside the values; conditions: strain NR-31041; for MICa: MIC of the antibiotic: antibiotic alone; for MICa: MIC of the antibiotic / MICac: MIC of the antibiotic in the combination: unit not given; for MICac: MIC of the antibiotic in the combination: with D-11 at MICbc 4
# In short: as §1
# P. aeruginosa PA14 = assay: microbe, parasite or virus in culture; set-up: MICa: MIC of the antibiotic / MICac: MIC of the antibiotic in the combination: unit not given beside the values; conditions: strain PA14; for MICa: MIC of the antibiotic: antibiotic alone; for MICa: MIC of the antibiotic / MICac: MIC of the antibiotic in the combination: unit not given; for MICac: MIC of the antibiotic in the combination: with D-11 at MICbc 4
# In short: as §1
# P. aeruginosa PAK = assay: microbe, parasite or virus in culture; set-up: MICa: MIC of the antibiotic / MICac: MIC of the antibiotic in the combination: unit not given beside the values; conditions: strain PAK; for MICa: MIC of the antibiotic: antibiotic alone; for MICa: MIC of the antibiotic / MICac: MIC of the antibiotic in the combination: unit not given; for MICac: MIC of the antibiotic in the combination: with D-11 at MICbc 4
# In short: as §1
# P. aeruginosa HM-214 = system: P. aeruginosa HM-214; set-up: MICa: MIC of the antibiotic / MICac: MIC of the antibiotic in the combination: unit not given beside the values; conditions: strain HM-214
# In short: as §1
# P. aeruginosa AUMC-Pa-1 = conditions: strain AUMC-Pa-1
# In short: as §1
# P. aeruginosa AUMC-Pa-2 = conditions: strain AUMC-Pa-2
# In short: as §1
# [1] = system: clinical P. aeruginosa isolates; assay: microbe, parasite or virus in culture; conditions: antibiotic alone; for MIC: Pseudomonas aeruginosa, 18 h
# In short: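 Broth microdilution per CLSI in MHB, two-fold drug dilutions mixed with an equal volume of bacteria at about 1 × 10^6 CFU/mL. After 18 h at 37 °C, MIC taken as the lowest concentration with no visible growth; run in triplicate.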
# [2] = antibiotic + D-11 (MICb/MICbc 128/4)
# [3] = strain AUMC-Pa-5, unit not given
# [4] = antibiotic + D-11 (MICb/MICbc 64/4)
# [5] = antibiotic alone, unit not given
# [6] = with D-11 at MICbc 4, unit not given
compound,measurement,setting,value
C[C@@H](O)[C@H]1C(=O)N2C(C(=O)O)=C(S[C@@H]3CN[C@H](C(=O)N(C)C)C3)[C@H](C)[C@H]12 [Meropenem],MIC,"P. aeruginosa AUMC-Pa-3; Pseudomonas aeruginosa, AUMCPA3, 18 h, read-out: MICa: MIC of the antibiotic",0.25 µM
same,FICI,"P. aeruginosa AUMC-Pa-3; strain AUMC-Pa-3, antibiotic + D-11 (MICb/MICbc 128/4)",1.031
same,MICac: MIC of the antibiotic in the combination,P. aeruginosa AUMC-Pa-3; strain AUMC-Pa-3,0.25/0.25
same,FICI,P. aeruginosa AUMC-Pa-4; [2],1.031
same,MICa: MIC of the antibiotic,P. aeruginosa AUMC-Pa-4,2/2
same,MICac: MIC of the antibiotic in the combination,P. aeruginosa AUMC-Pa-4,2/2
same,MIC,"P. aeruginosa AUMC-Pa-5; Pseudomonas aeruginosa, AUMCPA5, 18 h, read-out: MICa: MIC of the antibiotic",0.25 µM
same,FICI,"P. aeruginosa AUMC-Pa-5; strain AUMC-Pa-5, antibiotic + D-11 (MICb/MICbc 64/4)",2.063
same,MICac: MIC of the antibiotic in the combination,P. aeruginosa AUMC-Pa-5; [3],0.5
same,FICI,P. aeruginosa AUMC-Pa-6; [4],2.063
same,MICa: MIC of the antibiotic,P. aeruginosa AUMC-Pa-6,2
same,MICac: MIC of the antibiotic in the combination,P. aeruginosa AUMC-Pa-6,4
same,MIC,"P. aeruginosa PAO1; Pseudomonas aeruginosa, PAO1, 18 h, read-out: MICa: the MIC of antibiotics, S3 Table, antibiotic alone",2 µM
same,FICI,"P. aeruginosa PAO1; S3 Table, antibiotic + 4 μM D-11",0.375
same,MICac: the MIC for the antibiotic in the combination,"P. aeruginosa PAO1; S3 Table, with 2 μM D-11",1 µM
same,MICac: the MIC for the antibiotic in the combination,"P. aeruginosa PAO1; S3 Table, with 4 μM D-11",0.5 µM
same,FICI,P. aeruginosa ATCC27853,1.125
same,MICa: MIC of the antibiotic,P. aeruginosa ATCC27853,1/1
same,MICac: MIC of the antibiotic in the combination,P. aeruginosa ATCC27853,1/1
same,FICI,P. aeruginosa NR-31040; [2],0.531
same,MICa: MIC of the antibiotic,P. aeruginosa NR-31040,2
same,MICac: MIC of the antibiotic in the combination,P. aeruginosa NR-31040,1
same,FICI,P. aeruginosa NR-31041; [4],0.563
same,MICa: MIC of the antibiotic,P. aeruginosa NR-31041,4
same,MICac: MIC of the antibiotic in the combination,P. aeruginosa NR-31041,2
same,FICI,P. aeruginosa PA14; [2],1.031
same,MICa: MIC of the antibiotic,P. aeruginosa PA14,2/2
same,MICac: MIC of the antibiotic in the combination,P. aeruginosa PA14,2/2
same,FICI,P. aeruginosa PAK; [4],1.063
same,MICa: MIC of the antibiotic,P. aeruginosa PAK,1/1
same,MICac: MIC of the antibiotic in the combination,P. aeruginosa PAK,1/1
same,FICI,P. aeruginosa HM-214; [2],1.031
same,FICI,P. aeruginosa AUMC-Pa-1; [2],1.031
same,FICI,P. aeruginosa AUMC-Pa-2; [4],2.063
same,MIC,"[1]; read-out: Antibiotic sensibility (MIC) of clinical P. aeruginosa isolate AUMC-Pa-1, strain AUMC-Pa-1",1 µM
same,MIC,"[1]; read-out: Antibiotic sensibility (MIC) of clinical P. aeruginosa isolate AUMC-Pa-2, strain AUMC-Pa-2",1 µM
same,MIC,"[1]; read-out: Antibiotic sensibility (MIC) of clinical P. aeruginosa isolate AUMC-Pa-3, strain AUMC-Pa-3",0.25 µM
same,MIC,"[1]; read-out: Antibiotic sensibility (MIC) of clinical P. aeruginosa isolate AUMC-Pa-4, strain AUMC-Pa-4",2 µM
same,MIC,"[1]; read-out: Antibiotic sensibility (MIC) of clinical P. aeruginosa isolate AUMC-Pa-5, strain AUMC-Pa-5",0.25 µM
same,MIC,"[1]; read-out: Antibiotic sensibility (MIC) of clinical P. aeruginosa isolate AUMC-Pa-6, strain AUMC-Pa-6",2 µM
same,MIC,"[1]; read-out: Antibiotic sensibility (MIC) of clinical P. aeruginosa isolate HM-214, strain HM-214",0.25 µM
same,MIC,"[1]; read-out: Antibiotic sensibility (MIC) of clinical P. aeruginosa isolate NR-31040, strain NR-31040",2 µM
same,MIC,"[1]; read-out: Antibiotic sensibility (MIC) of clinical P. aeruginosa isolate NR-31041, strain NR-31041",4 µM
Spiramycin,MICac: MIC of the antibiotic in the combination,P. aeruginosa AUMC-Pa-3; strain AUMC-Pa-3,64
same,MICa: MIC of the antibiotic,P. aeruginosa AUMC-Pa-4,>128/>128
same,MICac: MIC of the antibiotic in the combination,P. aeruginosa AUMC-Pa-4,>128/>128
same,MICa: MIC of the antibiotic,"P. aeruginosa AUMC-Pa-5; strain AUMC-Pa-5, antibiotic alone, unit not given",>128/128
same,MICac: MIC of the antibiotic in the combination,P. aeruginosa AUMC-Pa-5; [3],>128/128
same,MICa: MIC of the antibiotic,P. aeruginosa AUMC-Pa-6,>128/128
same,MICac: MIC of the antibiotic in the combination,P. aeruginosa AUMC-Pa-6,>128/128
same,MIC of spiramycin alone,P. aeruginosa PAO1,higher than 128 μM
same,FICI,"P. aeruginosa PAO1; spiramycin + D-11, 256 used for the calculation",0.625
same,MICa: the MIC of antibiotics,"P. aeruginosa PAO1; S1 Table, macrolide alone",>128/>128 μM and >128/128 μM
same,FICI,P. aeruginosa ATCC27853,0.625
same,MICa: MIC of the antibiotic,P. aeruginosa ATCC27853,>128/128
same,MICac: MIC of the antibiotic in the combination,P. aeruginosa ATCC27853,>128/128
same,MICa: MIC of the antibiotic,P. aeruginosa NR-31040,>128/128
same,MICac: MIC of the antibiotic in the combination,P. aeruginosa NR-31040,>128/128
same,MICa: MIC of the antibiotic,P. aeruginosa NR-31041,>128/128
same,MICac: MIC of the antibiotic in the combination,P. aeruginosa NR-31041,>128/128
same,MICa: MIC of the antibiotic,P. aeruginosa PA14,>128/128
same,MICac: MIC of the antibiotic in the combination,P. aeruginosa PA14,>128/128
same,MICa: MIC of the antibiotic,P. aeruginosa PAK,>128/128
same,MICac: MIC of the antibiotic in the combination,P. aeruginosa PAK,>128/128
same,MICa: MIC of the antibiotic,P. aeruginosa HM-214; [5],>128/128
same,MICac: MIC of the antibiotic in the combination,P. aeruginosa HM-214; [6],>128/128
same,MICac: MIC of the antibiotic in the combination,P. aeruginosa AUMC-Pa-1; [6],64
same,MICa: MIC of the antibiotic,P. aeruginosa AUMC-Pa-2; [5],>128/128
same,MICac: MIC of the antibiotic in the combination,P. aeruginosa AUMC-Pa-2; [6],>128/128
same,Antibiotic sensibility (MIC) of clinical P. aeruginosa isolate AUMC-Pa-1,[1]; strain AUMC-Pa-1,>128 µM
same,Antibiotic sensibility (MIC) of clinical P. aeruginosa isolate AUMC-Pa-2,[1]; strain AUMC-Pa-2,>128 µM
same,Antibiotic sensibility (MIC) of clinical P. aeruginosa isolate AUMC-Pa-3,[1]; strain AUMC-Pa-3,>128 µM
same,Antibiotic sensibility (MIC) of clinical P. aeruginosa isolate AUMC-Pa-4,[1]; strain AUMC-Pa-4,>128 µM
same,Antibiotic sensibility (MIC) of clinical P. aeruginosa isolate AUMC-Pa-5,[1]; strain AUMC-Pa-5,>128 µM
same,Antibiotic sensibility (MIC) of clinical P. aeruginosa isolate AUMC-Pa-6,[1]; strain AUMC-Pa-6,>128 µM
same,Antibiotic sensibility (MIC) of clinical P. aeruginosa isolate HM-214,[1]; strain HM-214,>128 µM
same,Antibiotic sensibility (MIC) of clinical P. aeruginosa isolate NR-31040,[1]; strain NR-31040,>128 µM
same,Antibiotic sensibility (MIC) of clinical P. aeruginosa isolate NR-31041,[1]; strain NR-31041,>128 µM
